For the experiment, the system named is 695427-040-R-J1-PDC complex spheroid viability. Put plainly: Anticancer human tumor 695427-040-R-J1-PDC patient-derived colon adenocarcinoma cell line growth inhibition [POLQ]. The conditions noted are these: for viability, T/C: stronger effect = lower value. As to the method:
Multicellular complex tumor spheroid response to Polymerase (POL) inhibitors (novobiocin, ART-558, RP6685) in combination with a variety of drugs and investigational agents in selected tumor cell lines
The POL inhibitors (novobiocin, ART-558, and RP6685) were evaluated both individually and in combination with standard of care and investigational anticancer small molecules within a complex spheroid model of solid tumors. . Complex spheroids include a stromal component modeled by human endothelial cells (HUVEC) and fibroblasts modeled by human mesenchymal stem cells (MSCs). The concentration ranges selected for each drug and investigational agent were based upon clinically achievable concentrations if the clinical Cmax of the agent was known.
Compounds. The drugs and investigational agents: novobiocin (NSC847541), ART-558 (NSC835418), RP-6685 (NSC848927), peposertib (NSC802822), ceralasertib (NSC780249), elimusertib (NSC800525), camonsertib (NSC841442), AZD-1390 (NSC803789), olaparib (NSC753686), talazoparib (NSC767125), rucaparib (NSC756644), sotorasib (NSC818433), MRTX-1133 (NSC836407), SN-38 (NSC673596), topotecan (NSC609699), epotoside (NSC141540), doxorubicin (NSC123127), gemcitabine (NSC613327), 5-fluorouracil (NSC19893), paclitaxel (NSC125973), vemurafenib (NSC761431), MSA-2 (NSC828583), SN-011 (NSC837082), adavosertib (NSC754352), prexasertib (NSC758257), carboplatin (NSC241240) and oxaliplatin (NSC266046), were obtained from the National Cancer Institute (NCI) Developmental Therapeutics Program Chemical Repository (21). The FDA-approved anticancer drug set is available from the Developmental Therapeutics Program at https://dtp.cancer.gov/organization/dscb/obtaining/. […] The stock solutions were prepared in dimethyl sulfoxide (DMSO, Sigma-Aldrich, St. Louis, MO, cat. D2650), except for the platinum compounds which were prepared in saline (Quality Biological, Gaithersburg, MD, cat. 114-055-101), at 800-fold the tested concentration and stored at -70 degrees C prior to their use. All drugs and investigational agents were tested over a range starting from a high concentration at or near the clinical Cmax and decreasing in half-log increments. If the clinical Cmax for an agent had not been determined, the highest concentration tested was 10 microM, except for SN-38, which was tested at a high concentration of 1 microM.
Cell Culture. All cells were maintained in an incubator at 37 degrees C and 5% CO2 with 95% humidity. The PDC lines were cultured according to standard operating procedures established by the NCI PDMR (https://pdmr.cancer.gov). Table 3 of the manuscript, lists the cell lines along with the number of the three cell types plated to form the mct-spheroids and media for tumor cell growth. After thawing, all PDC lines, except 997537-175-T-J1-PDC and 415267-285-R-J2-PDC, were cultured in Matrigel-coated flasks prepared with a working solution of 1X Ham's F-12 nutrient mix, without supplementation (Thermo Fisher Scientific, cat. 11765054), 100 U/mL penicillin-streptomycin (Thermo Fisher Scientific, cat. 15140122), and 2.5% Matrigel (Corning Inc., Corning, NY, cat. 354248) for the first three passages. The two PDC lines 997537-175-T-J1-PDC and 415267-285-R-J2-PDC were cultured on uncoated flasks. The 857933-349-R-J2-PDC line was cultured in 6C/Colon 1B media containing advanced DMEM/F-12 (Thermo Fisher Scientific, cat. 12634028), 10 mM HEPES (Thermo Fisher Scientific, cat. 15630080), 1X GlutaMAX supplement (Thermo Fisher Scientific, cat. 35050061), 0.1 mg/mL primocin (InvivoGen, San Diego, CA, cat. ant-pm-2), 10% defined fetal bovine serum, heat inactivated (HyClone Laboratories Inc., Logan, UT, cat. SH30070.03HI), 50% L-WRN conditioned media (ATCC, cat. CRL-3276), 1.25 mM N-Acetyl-L-cysteine (Sigma-Aldrich, cat. A9165), 10 mM nicotinamide (Sigma-Aldrich, cat. N0636), 1X B-27 supplement (Thermo Fisher Scientific, cat. 17504044), 1X N-2 supplement (Thermo Fisher Scientific, cat. […]

Setting [1] is: compound alone, run of 11/06/2023.

Experimental findings from PubChem BioAssay AID1963840 (Molecular Pharmacology Branch, DTP, NCI, 2024) are described below.

“And” between values parts separate entries of the source, which are not always exact repeats. Equal entries are not always repeated. Some results are limits rather than exact numbers.
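Further: spheroids exposed to compounds for seven days.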
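Wherever viability, T/C is given: 100% = DMSO vehicle control viability.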

As for `COc1ccc([C@@H](O)c2cc(-c3ncnc4cc(N5CCOCC5)ccc34)c(F)cc2Cl)nn1`, the viability, T/C runs as follows: (compound 0.0316 µM) 108% and 103% (2×); (compound 0.1 µM) 91.8% and 86.1% and 99.5%; (compound 0.316 µM) 92.8% and 93.3% and 97.7%; (compound 1 µM) 91.9% and 94.2% and 96.2%; (compound 3.16 µM) 80.1% and 82.6% and 85%; (compound 10 µM) 50% and 59% and 56.5%. For the same molecule, the IC50 (curve of compound) was over 10 µM.

Regarding `COc1cccc(OCCCN)c1-c1cc(Nc2cnc(C#N)cn2)n[nH]1`, the viability, T/C runs as follows: (compound 0.00316 µM) 94.2% and 94.8% and 102%; (compound 0.01 µM) 84.4% and 93.3% and 91.1%; (compound 0.0316 µM) 80.9% and 87.1% and 92.6%; (compound 0.1 µM) 76% and 75.7% and 85.2%; (compound 0.316 µM) 53.1% and 74.3% and 72.6%; (compound 1 µM) 37.3% and 50.5% and 55.4%. Besides, the IC50 (curve of compound) is 0.448 µM and > 1 µM.

Regarding `COc1cccc2c1C(=O)c1c(O)c3c(c(O)c1C2=O)CC(O)(C(=O)CO)CC3OC1CC(N)C(O)C(C)O1` (centres undefined), the viability, T/C reads like this: (compound 0.0316 µM) 87.5% and 98.1% and 92.7%; (compound 0.1 µM) 96.2% and 87.2% and 90.7%; (compound 0.316 µM) 95% and 96.7% and 101%; (compound 1 µM) 71.2% and 89.7% and 82.5%; (compound 3.16 µM) 66% and 74% and 68.7%; (compound 10 µM) 57.1% and 69.8% and 53.8%. For the same molecule, the half-inhibitory concentration (IC50) (curve of compound) is over 10 µM.

Consider `Cc1cccc(N(C)C(=O)C2C(O)CCN2c2nc(C)cc(C(F)(F)F)c2C#N)c1` (centres undefined), for which the viability, T/C by setting is: (compound 0.0316 µM) 102% [middle of 13 runs]; (compound 0.1 µM) 101% [middle of 13 runs]; (compound 0.316 µM) 100% [middle of 13 runs]; (compound 1 µM) 100% [middle of 13 runs]; (compound 3.16 µM) 99% [middle of 13 runs]; (compound 10 µM) 100% [middle of 13 runs]. For the same molecule, the IC50 reads like this: (compound alone, run of 10/31/2023) over 10 µM; under setting [1], over 10 µM.

`Cn1ncnc1[C@H]1c2n[nH]c(=O)c3cc(F)cc(c23)N[C@@H]1c1ccc(F)cc1`: the viability, T/C (compound 0.000316 µM) is 105% and 96.4% and 102%; the viability, T/C (compound 0.001 µM) was 97.7% and 91% and 93.6%; the viability, T/C (compound 0.00316 µM) is 109% and 102% and 99.2%; the viability, T/C (compound 0.01 µM) was 101% and 109% and 104%; the viability, T/C (compound 0.0316 µM) was 106% and 113% and 101%; the viability, T/C (compound 0.1 µM) is 89.5% and 97.1% and 94.2%. In addition, the IC50 (curve of compound) is over 0.1 µM.

Take `Nc1ccc(C#CCN(C(=O)Cc2ncc(C(F)(F)F)cc2C(F)(F)F)c2ccc(F)cc2)nn1`: the viability, T/C runs as follows: (compound 0.0316 µM) 91.6% [middle of 13 runs]; (compound 0.1 µM) 102% [middle of 13 runs]; (compound 0.316 µM) 101% [middle of 13 runs]; (compound 1 µM) 101% [middle of 13 runs]; (compound 3.16 µM) 102% [middle of 13 runs]; (compound 10 µM) 105% [middle of 12 runs]. Besides, the IC50 under setting [1] was over 10 µM.

`Nc1ccn(C2OC(CO)C(O)C2(F)F)c(=O)n1` (centres undefined): the viability, T/C was 90% and 87.3% (2×) (compound 0.0316 µM); 76.8% and 89.3% and 78.8% (compound 0.1 µM); 70.9% and 83.7% and 72% (compound 0.316 µM); 71.8% and 78.5% and 69% (compound 1 µM); 64.6% and 81.7% and 60.8% (compound 3.16 µM); 57.5% and 64.6% and 53% (compound 10 µM). In addition, the IC50 (curve of compound) is over 10 µM.

Turning to `O=C(c1cc(Cc2n[nH]c(=O)c3ccccc23)ccc1F)N1CCN(C(=O)C2CC2)CC1`, the viability, T/C is 102% and 101% (2×) (compound 0.0316 µM); 87.2% and 107% and 101% (compound 0.1 µM); 102% and 110% and 100% (compound 0.316 µM); 99% and 107% and 102% (compound 1 µM); 101% and 102% and 114% (compound 3.16 µM); 97.8% and 97.4% and 107% (compound 10 µM). Further, the IC50 (curve of compound) was over 10 µM.

In the case of `O=c1[nH]cc(F)c(=O)[nH]1`, the viability, T/C is, setting by setting: (compound 0.0316 µM) 105% (2×) and 104%; (compound 0.1 µM) 95.7% and 106% and 103%; (compound 0.316 µM) 93.2% and 102% and 99.6%; (compound 1 µM) 102% and 100% (2×); (compound 3.16 µM) 102% and 115% and 103%; (compound 10 µM) 96% and 111% and 99.7%. Moreover, where the note is “curve of compound”, the IC50 is over 10 µM.
